# According to US20230053540A1, “TREATMENT OF LIVER INJURY” (Massachusetts Institute of Technology, priority 2019, published 2023):
# Tested on: hepatocytes
# Test: Seq-Well scRNA-Seq of hepatocytes after APAP overdose (signature scores, DEG vs untreated)
# Format: in vivo, mouse
# Details: APAP vs UT, composite DEG
structure (smiles),measurement,value
"CC(=O)Nc1ccc(O)cc1 [APAP, acetaminophen]",Ndufs4 logFC,−0.3132
same,Ndufs8 logFC,−0.3614
same,Ndufv2 logFC,−0.3276
same,Ndufv3 logFC,−0.3971
same,Neat1 logFC,0.6374
same,Nedd4l logFC,0.2812
same,Nedd8 logFC,−0.3564
same,Nfe2l1 logFC,0.2703
same,Nid1 logFC,0.3426
same,Nme1 logFC,−0.4329
same,Nop10 logFC,−0.2919
same,Nop58 logFC,0.6634
same,Nr0b2 logFC,−0.293
same,Nr1d2 logFC,0.4306
same,Nr1i3 logFC,0.4259
same,Nr2f6 logFC,−0.3754
same,Nrip1 logFC,0.2729
same,Oaf logFC,−0.7329
same,Oat logFC,−1.225
same,Orm1 logFC,0.3651
same,Osbpl1a logFC,0.2728
same,Osbpl9 logFC,0.2788
same,Ostc logFC,0.2658
same,Otc logFC,−0.299
same,P4hb logFC,0.4052
same,Pabpc1 logFC,0.4949
same,Pacsin2 logFC,0.3708
same,Padi3 logFC,0.2957
same,Pak2 logFC,0.2815
same,Palld logFC,0.3414
same,Pank1 logFC,−0.3527
same,Paqr9 logFC,−0.3323
same,Pbld1 logFC,−0.4425
same,Pcbd1 logFC,−0.6878
same,Pcbp2 logFC,0.3103
same,Pck1 logFC,−0.6522
same,Pdia3 logFC,0.5938
same,Pecr logFC,−0.3981
same,Pex11a logFC,0.3508
same,Pgrmc1 logFC,0.3502
same,Phc2 logFC,0.312
same,Phf20l1 logFC,0.3085
same,Phlda1 logFC,0.5492
same,Pigr logFC,0.3868
same,Pipox logFC,0.2725
same,Pla2g7 logFC,0.2823
same,Plek logFC,0.3089
same,Plin2 logFC,1.461
same,Plin5 logFC,0.3521
same,Plk3 logFC,0.4166
same,Plscr1 logFC,0.4445
same,Pnkd logFC,−0.2928
same,Pnpla7 logFC,−0.3016
same,Pnpla8 logFC,0.2956
same,Pon1 logFC,−0.6858
same,Por logFC,0.336
same,Ppara logFC,0.3589
same,Ppp1r12a logFC,0.3563
same,Prdx1 logFC,−0.5292
same,Prdx4 logFC,−0.4176
same,Prdx5 logFC,−0.2821
same,Prkaa2 logFC,0.2636
same,Prodh2 logFC,0.3453
same,Prox1 logFC,0.2663
same,Proz logFC,0.2632
same,Prrc2c logFC,0.4393
same,Psat1 logFC,0.3012
same,Psen2 logFC,−0.9474
same,Psmb1 logFC,−0.3585
same,Psmb3 logFC,−0.3303
same,Psmb6 logFC,−0.3194
same,Psme1 logFC,−0.394
same,Psme4 logFC,0.2626
same,Ptp4a1 logFC,0.2627
same,Ptpn2 logFC,0.2734
same,Ptprc logFC,0.4165
same,Ptprf logFC,0.3071
same,Purb logFC,0.3525
same,Pxk logFC,0.2819
same,Pxmp2 logFC,−0.3671
same,Pzp logFC,0.416
same,Rarres1 logFC,−0.4556
same,Rbm25 logFC,0.4215
same,Rcan1 logFC,0.7073
same,Rdh7 logFC,−0.4186
same,Rdx logFC,0.3736
same,Reep3 logFC,0.409
same,Reep6 logFC,0.5143
same,Rell1 logFC,0.5912
same,Retnlg logFC,0.3751
same,Rexo2 logFC,−0.3263
same,Rgn logFC,−1.573
same,Rgs16 logFC,0.3226
same,Rlim logFC,0.3102
same,Rnase4 logFC,−1.049
same,Rnaseh2c logFC,−0.3257
same,Rnf13 logFC,0.2553
same,Rnf144a logFC,0.313
same,Romo1 logFC,−0.3359
same,Rpl4 logFC,0.2839
same,Rpl13a logFC,−0.3815
same,Rpl13 logFC,−0.2997
same,Rpl14 logFC,−0.2776
same,Rpl38 logFC,0.2543
same,Rplp0 logFC,−0.4309
same,Rps3 logFC,−0.3493
same,Rps8 logFC,−0.2746
same,Rps9 logFC,−0.3718
same,Rps10 logFC,−0.3369
same,Rps15 logFC,−0.4552
same,Rps18 logFC,−0.4885
same,Rps21 logFC,−0.3645
same,Rps27l logFC,−0.8659
same,Rsp14 logFC,−0.4021
same,Saa2 logFC,0.9645
same,Sardh logFC,0.2692
same,Sbno1 logFC,0.3671
same,Sc4mol logFC,−0.3262
same,Scaf11 logFC,0.3598
same,Scd1 logFC,0.7267
same,Sco2 logFC,−0.2929
same,Scp2 logFC,−0.5191
same,Sdhb logFC,−0.2896
same,Sdhc logFC,0.3944
same,Sdr9c7 logFC,−0.26
same,Sdsl logFC,0.2593
same,Sec14l2 logFC,−0.7897
same,Sec31a logFC,0.263
same,Sec61b logFC,−0.2903
same,Sec62 logFC,0.2516
same,Sel1l logFC,0.336
same,Selk logFC,−0.3383
same,Serpina1b logFC,−0.3018
same,Serpina1c logFC,−0.4026
same,Serpina3m logFC,0.9674
same,Serpina3n logFC,0.8483
same,Serpina10 logFC,0.565
same,Serpina12 logFC,−0.4534
same,Serpinf1 logFC,0.3196
same,Serping1 logFC,0.4128
same,Sf1 logFC,0.3023
same,Sfpq logFC,0.394
same,Sgk1 logFC,0.2843
same,Sh3bgrl logFC,0.2513
same,Sh3glb1 logFC,0.326
same,Shb logFC,0.3152
same,Shmt1 logFC,−0.3932
same,Sirt3 logFC,−0.346
same,Slc4a4 logFC,0.4203
same,Slc7a2 logFC,0.3526
same,Slc10a1 logFC,−0.3258
same,Slc16a6 logFC,0.9114
same,Slc22a1 logFC,−0.7979
same,Slc22a30 logFC,−0.3746
same,Slc25a10 logFC,0.3433
same,Slc25a13 logFC,0.2855
same,Slc25a20 logFC,0.38
same,Slc25a47 logFC,0.5027
same,Slc27a2 logFC,0.3853
same,Slc27a5 logFC,0.337
same,Slc38a10 logFC,0.2855
same,Slc39a14 logFC,1.013
same,Slc40a1 logFC,0.467
same,Slco1b2 logFC,−1.087
same,Slirp logFC,−0.3085
same,Smap2 logFC,0.3489
same,Smdt1 logFC,−0.3673
same,Smg1 logFC,0.335
same,Snord13 logFC,0.2611
same,Snx10 logFC,0.2856
same,Sod1 logFC,−0.4393
same,Sord logFC,−0.3836
same,Spp2 logFC,−0.3821
same,Sptbn1 logFC,0.4227
same,Srebf1 logFC,0.2762
same,Srgn logFC,0.9341
same,Srp72 logFC,0.3107
same,Srpr logFC,0.3052
same,Srsf11 logFC,0.4012
same,Ssr3 logFC,0.5218
same,St3gal5 logFC,0.6076
same,Stbd1 logFC,−0.2732
same,Steap4 logFC,0.476
same,Stk17b logFC,0.2911
same,Stom logFC,0.3232
same,Stt3b logFC,0.3194
same,Suco logFC,0.251
same,Suds3 logFC,0.2539
same,Sult1d1 logFC,0.4599
same,Supt6 logFC,0.2913
same,Surf4 logFC,0.2586
same,Syncrip logFC,0.2748
same,Tars logFC,0.4921
same,Tbl1xr1 logFC,0.3075
same,Tcea3 logFC,−0.355
same,Tceb2 logFC,−0.3207
same,Tfpi2 logFC,−0.3663
same,Tgm2 logFC,0.3993
same,Tgoln1 logFC,0.3883
same,Timm8b logFC,−0.3936
same,Timm13 logFC,−0.433
same,Tjp1 logFC,0.2862
